From patent publication US9074235B2, “Method for evaluating the improvement of skin elasticity using a mimetic dermis” (AMOREPACIFIC CORPORATION, priority 2010, dated 2015)

Experiments:
[1] = test system: dermal mimics (glycated collagen with human neonatal fibroblasts); assay: Evaluation of skin elasticity-improving effect using dermal mimics (three-dimensional images); type: cell-based; conditions: observed about 10 minutes after separation from culture insert
Procedure: (1) 40 μl of 10× P buffer (DMEM (Dulbecco's Modified Eagle Medium (DMEM powder, Gibco, USA)), a Ham's F-12 nutrient mixture (F-12 powder, Gibco, USA), 4 ml of an antibiotic-antifungal agent (PSF, Gibco, USA) in 400 ml of sterile distilled water, 40 μl of reconstitution buffer (obtained by dissolving 2.2 g of NaHCO3 and 4.77 g of HEPES in 100 ml of 0.05M NaOH, and filtering the solution) and 2 μl of 5 M NaOH were added to an Epi-tube and sufficiently mixed.
(2) 320 μl of an aqueous solution of normal collagen or an aqueous solution of glycated collagen is added to and well mixed with the mixture of step (1) and using a pipette.
(3) 10^4 human neonatal fibroblasts (HDFn, Cascade Biologics, USA) are added to and well mixed with the solution of step (2) using a pipette so that the fibroblasts are uniformly distributed in the solution.
(4) A culture insert (12 mm, Transwell®, Corning, USA) is placed in a 12-well culture dish, and the mixture is placed in the culture insert and is allowed to react at 37° for 30 minutes so that the aqueous collagen solution is hardened.
(5) After the collagen has been completely hardened, fibroblast culture medium (M106, Cascade Biologics, USA) is added to both the inside and outside of the culture insert and incubated overnight. Then, the dermal mimic is incubated for in about one week while the medium is replaced at 3-day intervals. In this process, dermal remodeling occurs due to the interaction between the fibroblasts and the collagen fibers.
Specifically, in this Example, the following collagens were prepared: non-glycated collagen (normal collagen); collagen glycated by treatment with 62.5 mM of ribose; collagen glycated by treatment with 62.5 mM of ribose together with 10 ppm of tocopherol; and collagen glycated by treatment with 62.5 mM of ribose together with 1 ppm of DPHP. Herein, the ribose used was obtained by dissolving D-ribose (Sigma, USA) in water and filtering the solution through a 0.2 μm filter (Minisart® sartorious stedim biotech, Germany). […]

[2] = test system: collagen gel with fibroblasts; assay: Collagen gel contraction assay (two-dimensional); type: cell-based, human; conditions: collagen glycated with ribose at 62.5, 125 and 250 mM
Procedure: Specifically, the dermal mimics were prepared according to the method of Reference Example 1, and the glycated collagen solution used in step (2) of the preparation method of Reference Example 1 was obtained by treating collagen with ribose at concentrations of 0, 62.5, 125 and 250 mM to induce collagen glycation. In addition, the ribose used was obtained by dissolving D-ribose (Sigma, USA) in water and filtering the solution through a 0.2 μm filter (Minisart® sartorious stedim biotech, Germany).
A specific method for glycation of collagen is as follows. D-ribose was added to a solution of collagen (obtained by dissolving type I collagen (Sigma, USA) in 0.1% acetic acid to a final concentration of 3 mg/ml) at specific concentrations (62.5, 125 and 250 mM) in a clean bench for preventing the contamination of collagen, and the mixture was placed in a rotation mixer rotatable at 360°, after which the mixture was allowed to react at room temperature for 3 days to induce glycation of the collagen.
In addition, for comparison, a collagen gel contraction assay which is a two-dimensional method was carried out by culturing a collagen gel, obtained by mixing fibroblasts with collagen glycated with the above-described concentrations of ribose, in a general culture dish, and obtaining a digital image of the cultured collagen gel.

CCCCCCCCCCCCCCCC(=O)O[C@@H]1C[C@@H](C(=O)O)N(C(=O)CCCCCCCCCCCCCCC)C1 [DPHP]
breakdown of the dermal mimics (shape/height on three-dimensional image) ([1]; collagen glycated with 62.5 mM ribose together with 1 ppm DPHP): breakdown of the dermal mimics was inhibited

O=C[C@H](O)[C@H](O)[C@H](O)CO [ribose, D-ribose]
shape of the dermal mimics (three-dimensional image) ([1]; collagen glycated with 62.5 mM ribose alone): broken down
contraction of collagen gels (two-dimensional digital image) [2]: not contracted

tocopherol
breakdown of the dermal mimics (shape/height on three-dimensional image) ([1]; collagen glycated with 62.5 mM ribose together with 10 ppm tocopherol): breakdown of the dermal mimics was inhibited
